Results taken from ChEMBL document CHEMBL5236546, “Potent and Subtype-Selective Dopamine D2 Receptor Biased Partial Agonists Discovered via an Ugi-Based Approach” (J Med Chem, 2021).

How the values were obtained:
[1] = molecular target: D(2) dopamine receptor (Homo sapiens, UniProt P14416)
Description: Partial agonist activity at D2 receptor (unknown origin) assessed as increase in cAMP accumulation

[2] = molecular target: D(3) dopamine receptor (Homo sapiens, UniProt P35462)
Description: Partial agonist activity at human D3 receptor assessed as inhibition constant

[3] = molecular target: T1, D(4) dopamine receptor (Homo sapiens, UniProt P21917)
T1 sequence (P21917 whole entry): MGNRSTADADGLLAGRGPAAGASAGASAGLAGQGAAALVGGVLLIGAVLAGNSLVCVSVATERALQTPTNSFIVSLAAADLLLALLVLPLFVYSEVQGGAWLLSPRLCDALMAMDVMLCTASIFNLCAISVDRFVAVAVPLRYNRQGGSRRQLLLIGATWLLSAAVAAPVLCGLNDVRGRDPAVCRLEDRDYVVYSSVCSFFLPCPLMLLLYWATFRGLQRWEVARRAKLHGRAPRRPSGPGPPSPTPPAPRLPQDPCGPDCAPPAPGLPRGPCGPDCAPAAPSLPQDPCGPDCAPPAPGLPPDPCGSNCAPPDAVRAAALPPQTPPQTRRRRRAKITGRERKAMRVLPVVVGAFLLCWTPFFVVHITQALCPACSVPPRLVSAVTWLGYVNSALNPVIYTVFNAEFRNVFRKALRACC
Description: Partial agonist activity at human D4 receptor assessed as inhibition constant

Chain of D(3) dopamine receptor (P35462 whole entry): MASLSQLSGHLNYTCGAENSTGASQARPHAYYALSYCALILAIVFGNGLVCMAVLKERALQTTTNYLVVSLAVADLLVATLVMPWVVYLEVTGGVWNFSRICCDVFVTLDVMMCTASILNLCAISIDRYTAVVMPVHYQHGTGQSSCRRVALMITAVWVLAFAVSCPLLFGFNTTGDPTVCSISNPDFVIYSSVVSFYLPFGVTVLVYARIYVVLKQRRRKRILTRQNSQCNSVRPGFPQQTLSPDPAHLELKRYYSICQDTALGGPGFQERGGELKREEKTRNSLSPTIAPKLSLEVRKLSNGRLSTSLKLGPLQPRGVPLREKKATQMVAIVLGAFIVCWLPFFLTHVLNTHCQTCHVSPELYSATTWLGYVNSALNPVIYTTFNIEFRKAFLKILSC
Chain of D(2) dopamine receptor (P14416 whole entry): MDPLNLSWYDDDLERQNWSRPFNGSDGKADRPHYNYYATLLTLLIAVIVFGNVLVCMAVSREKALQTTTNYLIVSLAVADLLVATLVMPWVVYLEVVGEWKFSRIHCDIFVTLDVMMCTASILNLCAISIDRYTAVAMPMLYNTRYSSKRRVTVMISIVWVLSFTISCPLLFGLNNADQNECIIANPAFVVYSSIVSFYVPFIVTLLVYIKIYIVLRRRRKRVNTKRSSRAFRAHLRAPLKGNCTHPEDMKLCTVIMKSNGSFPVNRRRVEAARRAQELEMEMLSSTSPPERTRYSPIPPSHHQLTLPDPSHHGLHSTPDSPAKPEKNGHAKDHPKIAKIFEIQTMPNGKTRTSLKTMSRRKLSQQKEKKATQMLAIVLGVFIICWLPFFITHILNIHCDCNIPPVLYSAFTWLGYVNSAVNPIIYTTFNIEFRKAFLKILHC

| EC50 [1] | Ki [2] [nM] | SMILES | Ki [3] |
| --- | --- | --- | --- |
| Not Active |  | Cn1ccc2c(N3CCN(CCCCOc4ccc5c(c4)NC(=O)CC5)CC3)cccc21 |  |
|  | 139 | CC1Cc2ccccc2N1C(=O)NCCCCN(C)[C@H]1Cc2cccc3[nH]c(=O)n(c23)C1 (some centres undefined) | Not Active |
|  |  | CN(C)C(=O)N[C@H]1CC[C@H](CCN2CCN(c3cccc(Cl)c3Cl)CC2)CC1 [CARIPRAZINE] | Not Active |
